A short description of data set [1]: Dissolution of amine fluoride in water with addition of alkali salts. An excerpt: Similar formulations are created also containing one or more alkali salts, selected from sodium chloride, potassium chloride and trisodium citrate dihydrate to investigate the effect of the salts' presence on solubility of the amine fluoride.
For data set [2] the following is noted: background statement; cited from earlier work.
Data set [3] is described as follows: Dissolution of amine fluoride in water without additional salts (saturation concentration). To be noted: no salts.
Method: Amine fluoride is added in increasingly greater amounts to determine its saturation concentration, shown below in Table 1A.
Data set [4] is described as follows: Dissolution of tertiary amine with HCl and sodium fluoride, without and with sodium chloride. The class given is physicochemical. The conditions noted are these: hydrochloric acid, sodium fluoride and alkali salt added; compared to absence of additional inorganic salts. An excerpt: A new batch of solutions was created similar to those shown in Table 2B, but with the addition of sodium fluoride.

A short description of data set [5]: Dissolution of tertiary amine in water without inorganic salts, with or without HCl. It is filed as physicochemical. An excerpt:
Similar compositions were created as those listed in Table 1A, but instead of amine fluoride, a tertiary amine was used.

Data set [6] is described as follows: Dissolution of tertiary amine with HCl and addition of alkali salts. It is filed as physicochemical. As to the method:
Further compositions containing the tertiary amine and hydrochloric acid were created. To these solutions, various quantities of alkali salts were added to evaluate the effect on solubility of the tertiary amine.

Setting [7] is: when adding sodium chloride (composition 10).
[8] abbreviates: with hydrochloric acid and about 5% alkali salt (composition 34).

Turning to `CCCCCCCCCCCCCCCCCCN(CCO)CCCN(CCO)CCO.F.F` [amine fluoride, N′-octadecyltrimethylendiamine-N,N,N′-tris(2-ethanol)-dihydrofluoride], the “lowest concentration of sodium chloride shown to increase solubility of amine fluoride in water” value in data set [1] (sodium chloride) is given as “about 0.7%”. Further, in data set [1] (setting [7]), the “solubility of amine fluoride in water” value is reported as “above 35 % by weight” and the “solubility of amine fluoride in water as concentration of tertiary amine” value is reported as “about 640 mM”. In data set [2], the aqueous solubility entry is “very low aqueous solubility”. In addition, in data set [3], the “maximum solubility of amine fluoride in water” value is “approximately 24 % by weight”. In addition, the “maximum solubility of amine fluoride in water as concentration of tertiary amine” value in data set [3] (amine fluoride fully dissociated from hydrofluoride) is recorded as “about 440 mM”.
With `CCCCCCCCCCCCCCCCCCN(CCO)CCCN(CCO)CCO` [tertiary amine, N′-octadecyltrimethylendiamine-N,N,N′-tris(2-ethanol)], the “change of solubility of the tertiary amine” value in data set [4] is “not increased any further”. Besides, the “solubility of tertiary amine as concentration” value in data set [5] (with hydrochloric acid corresponding to hydronium level of equivalent amine fluoride) is recorded as “about 530 mM”. Also, the “solubility of tertiary amine” value in data set [5] (with hydrochloric acid corresponding to hydronium level of equivalent amine fluoride (compositions 21-23)) was “above 24%”. In data set [5] (without adjustment of pH), the “solubility of the tertiary amine in water” value is given as “about 70 % by weight” and the “solubility of the tertiary amine in water as concentration” value is “about 1520 mM”. The “minimum addition of Sodium Chloride to fully dissolve 34% of tertiary amine” value in data set [6] (with hydrochloric acid) is listed as “about 1%”. In data set [6] (setting [8]), the “solubility of tertiary amine in water” value was “about 40 % by weight” and the “solubility of tertiary amine in water as concentration” value is “about 870 mM”.

These data come from patent US12544325B2, “Compositions and related methods” (Colgate-Palmolive Company, priority 2020, dated 2026).
